Where two headings read alike, the source gives them in different places.
Key:
[1] = molecular target: KRAS G13C (Homo sapiens, UniProt P01116+P62937, G13C); assay: Disruption of BRAF RBD interaction with Ras (FRET / MOA assay, with Cyclophilin A); format: biochemical; conditions: read-out: KRAS G13C FRET data, IC50
Method in brief: (§1)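 Here, compound titrations (ten points, factor 3, from 30 μM final) act on nucleotide-bound K-Ras and Cyclophilin A, and ternary complex formation disrupts the RAF RBD interaction.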

[2] = molecular target: KRAS G13D (Homo sapiens, UniProt P01116+P62937, G13D); assay: as above; format: biochemical; conditions: KRAS G13D; read-out: KRAS G13D FRET data IC50
Method in brief: as §1

[3] = molecular target: NRAS G12C (Homo sapiens, UniProt P01111+P62937, G12C); assay: as above; format: biochemical; conditions: NRAS G12C; read-out: NRAS G12C FRET data IC50
[4] = molecular target: KRAS G12S (Homo sapiens, UniProt P01116+P62937, G12S); assay: as above; format: biochemical; conditions: read-out: KRAS G12S FRET data, IC50
Method in brief: as §1

[5] = molecular target: KRAS WT (Homo sapiens, UniProt P01116+P62937); assay: as above; format: biochemical; conditions: KRAS WT; read-out: KRAS WT FRET data IC50
Method in brief: as §1

[6] = molecular target: KRAS G12D (Homo sapiens, UniProt P01116+P62937, G12D); assay: as above; format: biochemical; conditions: read-out: KRAS G12D FRET data, IC50
Method in brief: as §1

[7] = molecular target: KRAS G12V (Homo sapiens, UniProt P01116+P62937, G12V); assay: as above; format: biochemical; conditions: KRAS G12V; read-out: KRAS G12V FRET data IC50
Method in brief: as §1

[8] = molecular target: KRAS G12C (Homo sapiens, UniProt P01116+P62937, G12C); assay: as above; format: biochemical; conditions: read-out: KRAS G12C FRET data, IC50
Method in brief: as §1

[9] = molecular target: NRAS WT (Homo sapiens, UniProt P01111+P62937); assay: as above; format: biochemical; conditions: NRAS WT; read-out: NRAS WT FRET data IC50
Method in brief: (§2)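 IC50 reflects compound-driven Ras:Cyclophilin A ternary complex displacing BRAF RBD, read as lowered TR-FRET ratio relative to DMSO after Eu anti-His (10 nM) and APC anti-GST (50 nM) detection for 1.5 h. Prior incubation 3 h, 25° C, with 12.5 nM GMPPNP-loaded Ras, 50 nM BRAF RBD, 25 μM Cyclophilin A; top compound 30 μM.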

[10] = molecular target: KRAS Q61H (Homo sapiens, UniProt P01116+P62937, Q61H); assay: as above; format: biochemical; conditions: KRAS Q61H; read-out: KRAS Q61H FRET data IC50
Method in brief: as §2

[11] = molecular target: NRAS Q61R (Homo sapiens, UniProt P01111+P62937, Q61R); assay: as above; format: biochemical; conditions: NRAS Q61R; read-out: NRAS Q61R FRET data IC50
Method in brief: as §2

[12] = molecular target: NRAS Q61K (Homo sapiens, UniProt P01111+P62937, Q61K); assay: as above; format: biochemical; conditions: NRAS Q61K; read-out: NRAS Q61K FRET data IC50
Method in brief: as §2

[13] = test system: NCI-H358 (K-Ras G12C); assay: CellTiter-Glo cell viability assay, 5-day treatment; format: cell-based; conditions: Homo sapiens, NCI-H358, 120 h
Method in brief: (§3)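 Five-day compound treatment of plated cells; luminescent read after ~30 min at RT. Percent-of-DMSO data fit to a four-parameter logistic model.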

[14] = test system: Capan-1 (K-Ras G12V); assay: as above; format: cell-based; conditions: Homo sapiens, CAPAN-1, 120 h
Method in brief: as §3

[15] = 5-day treatment, read-out: H358 Cell Viability assay data (K-Ras G12C, IC50)
[16] = 5-day treatment, read-out: Capan-1 Cell Viability assay data (K-Ras G12V, IC50)

Chain of KRAS Q61H (P01116 1-169 isoform P01116-2 Q61H limits assumed): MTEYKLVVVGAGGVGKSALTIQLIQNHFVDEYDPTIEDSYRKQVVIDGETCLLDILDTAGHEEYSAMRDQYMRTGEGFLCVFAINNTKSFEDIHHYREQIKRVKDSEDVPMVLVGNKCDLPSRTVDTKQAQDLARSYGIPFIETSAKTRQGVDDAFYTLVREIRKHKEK
Chain of KRAS Q61H (P62937 whole entry): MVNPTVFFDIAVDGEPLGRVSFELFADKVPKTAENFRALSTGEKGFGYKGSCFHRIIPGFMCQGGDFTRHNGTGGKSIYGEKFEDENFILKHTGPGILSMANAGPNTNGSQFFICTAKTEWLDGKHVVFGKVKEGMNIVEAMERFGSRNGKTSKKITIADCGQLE
Chain of KRAS G12D (P01116 1-169 isoform P01116-2 G12D limits assumed): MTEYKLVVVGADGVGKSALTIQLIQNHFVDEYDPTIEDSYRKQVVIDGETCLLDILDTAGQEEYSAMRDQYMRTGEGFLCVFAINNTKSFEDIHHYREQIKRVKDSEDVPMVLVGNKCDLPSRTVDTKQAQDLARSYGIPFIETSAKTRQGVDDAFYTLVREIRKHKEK
Chain of KRAS G12D (P62937 whole entry): as the sequence (P62937 whole entry) above
Chain of NRAS WT (P01111 whole entry): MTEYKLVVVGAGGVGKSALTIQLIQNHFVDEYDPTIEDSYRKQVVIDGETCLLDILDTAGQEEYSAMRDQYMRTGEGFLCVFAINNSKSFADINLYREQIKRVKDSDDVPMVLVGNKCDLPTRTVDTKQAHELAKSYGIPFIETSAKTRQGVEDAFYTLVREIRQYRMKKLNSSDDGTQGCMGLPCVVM
Chain of NRAS WT (P62937 whole entry): as the sequence (P62937 whole entry) above
Chain of KRAS G12C (P01116 1-169 isoform P01116-2 G12C): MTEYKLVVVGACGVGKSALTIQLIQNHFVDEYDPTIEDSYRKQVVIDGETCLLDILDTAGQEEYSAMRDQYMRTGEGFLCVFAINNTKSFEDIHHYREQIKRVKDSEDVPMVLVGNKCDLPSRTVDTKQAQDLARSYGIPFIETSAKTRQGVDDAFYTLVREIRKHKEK
Chain of KRAS G12C (P62937 whole entry): as the sequence (P62937 whole entry) above
Chain of NRAS G12C (P01111 whole entry G12C): as the sequence (P01111 whole entry) above, with G12C counted along it
Chain of NRAS G12C (P62937 whole entry): as the sequence (P62937 whole entry) above
Chain of NRAS Q61K (P01111 whole entry Q61K): as the sequence (P01111 whole entry) above, with Q61K counted along it
Chain of NRAS Q61K (P62937 whole entry): as the sequence (P62937 whole entry) above
Chain of KRAS G12S (P01116 1-169 isoform P01116-2 G12S limits assumed): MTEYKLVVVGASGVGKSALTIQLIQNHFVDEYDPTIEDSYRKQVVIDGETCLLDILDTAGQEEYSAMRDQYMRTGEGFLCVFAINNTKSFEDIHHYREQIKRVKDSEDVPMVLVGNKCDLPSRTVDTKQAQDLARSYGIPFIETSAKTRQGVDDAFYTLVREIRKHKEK
Chain of KRAS G12S (P62937 whole entry): as the sequence (P62937 whole entry) above
Chain of KRAS WT (P01116 1-169 isoform P01116-2 limits assumed): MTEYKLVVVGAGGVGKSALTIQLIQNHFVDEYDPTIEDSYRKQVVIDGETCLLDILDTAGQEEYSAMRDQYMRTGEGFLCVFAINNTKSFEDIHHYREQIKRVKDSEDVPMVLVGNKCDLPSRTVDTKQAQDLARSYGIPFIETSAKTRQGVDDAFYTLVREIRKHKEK
Chain of KRAS WT (P62937 whole entry): as the sequence (P62937 whole entry) above
Chain of KRAS G13C (P01116 1-169 isoform P01116-2 G13C): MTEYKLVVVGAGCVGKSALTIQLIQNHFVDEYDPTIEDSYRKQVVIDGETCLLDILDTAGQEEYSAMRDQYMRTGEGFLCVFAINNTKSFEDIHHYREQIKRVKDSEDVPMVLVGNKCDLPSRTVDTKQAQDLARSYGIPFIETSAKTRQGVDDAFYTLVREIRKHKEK
Chain of KRAS G13C (P62937 whole entry): as the sequence (P62937 whole entry) above
Chain of KRAS G13D (P01116 1-169 isoform P01116-2 G13D limits assumed): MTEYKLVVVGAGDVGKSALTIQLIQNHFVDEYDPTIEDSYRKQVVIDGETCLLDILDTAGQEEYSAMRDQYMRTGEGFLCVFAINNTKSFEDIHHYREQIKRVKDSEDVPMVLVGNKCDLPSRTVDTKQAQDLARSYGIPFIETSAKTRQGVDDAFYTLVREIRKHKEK
Chain of KRAS G13D (P62937 whole entry): as the sequence (P62937 whole entry) above
Chain of NRAS Q61R (P01111 whole entry Q61R): as the sequence (P01111 whole entry) above, with Q61R counted along it
Chain of NRAS Q61R (P62937 whole entry): as the sequence (P62937 whole entry) above
Chain of KRAS G12V (P01116 1-169 isoform P01116-2 G12V limits assumed): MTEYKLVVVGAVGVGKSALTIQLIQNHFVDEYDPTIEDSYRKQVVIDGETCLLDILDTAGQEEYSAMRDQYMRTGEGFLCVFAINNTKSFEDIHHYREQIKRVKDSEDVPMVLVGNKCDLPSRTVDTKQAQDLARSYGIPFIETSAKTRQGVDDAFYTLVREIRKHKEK
Chain of KRAS G12V (P62937 whole entry): as the sequence (P62937 whole entry) above

| Compound | IC50 [1] | IC50 [2] | IC50 [3] | IC50 [4] | IC50 [5] | IC50 [6] | IC50 [7] | IC50 [8] | IC50 [9] | IC50 [10] | IC50 [11] | IC50 [12] | IC50 [13, 15] | IC50 [14, 16] | IC50 ([13]; read-out: H358 Cell Viability assay data (K-Ras G12C, IC50, uM), 5-day treatment) | IC50 ([14]; read-out: Capan-1 Cell Viability assay data (K-Ras G12V, IC50, uM)) |
| --- | --- | --- | --- | --- | --- | --- | --- | --- | --- | --- | --- | --- | --- | --- | --- | --- |
| CCn1c(-c2cccnc2[C@H](C)OC)c2c3cc(ccc31)-c1csc(n1)C[C@H](NC(=O)[C@H](C(C)C)N(C)C(=O)N(C)C[C@@H]1CCCN1C)C(=O)N1CCC[C@H](N1)C(=O)OCC(C)(C)C2 [Example A504] | 100 to 1000 nM | 100 to 1000 nM | 100 to 1000 nM | 1000 to 10000 nM | 100 to 1000 nM | 1000 to 10000 nM | 1000 to 10000 nM | 100 to 1000 nM | 100 to 1000 nM | 100 to 1000 nM | 1000 to 10000 nM | 1000 to 10000 nM | 0.1 to 1 µM | 0.1 to 1 µM |  |  |
| CCn1c(-c2cccnc2[C@H](C)OC)c2c3cc(ccc31)-c1csc(n1)C[C@H](NC(=O)[C@H](C(C)C)N(C)C(=O)N1CCCC1)C(=O)N1CCC[C@H](N1)C(=O)OCC(C)(C)C2 (atropisomer, axis not shown) [Example A400] | 100 to 1000 nM | 100 to 1000 nM | 10 to 100 nM | 10 to 100 nM | 10 to 100 nM | 100 to 1000 nM | 100 to 1000 nM | 10 to 100 nM | 10 to 100 nM | 10 to 100 nM | 10 to 100 nM | 10 to 100 nM | 0.01 to 0.1 µM | 0.01 to 0.1 µM |  |  |
| CCn1c(-c2cccnc2[C@H](C)OC)c2c3cc(ccc31)-c1csc(n1)C[C@H](NC(=O)[C@H](C(C)C)N(C)C(=O)N1CCCC13CCOCC3)C(=O)N1CCC[C@H](N1)C(=O)OCC(C)(C)C2 (atropisomer, axis not shown) [Example A520] | 100 to 1000 nM | 100 to 1000 nM | 100 to 1000 nM | 100 to 1000 nM | 100 to 1000 nM | 100 to 1000 nM | 100 to 1000 nM | 100 to 1000 nM | 100 to 1000 nM | 10 to 100 nM | 10 to 100 nM | 10 to 100 nM | 0.01 to 0.1 µM | 0.01 to 0.1 µM |  |  |
| CCn1c(-c2cccnc2[C@H](C)OC)c2c3cc(ccc31)-c1csc(n1)C[C@H](NC(=O)[C@H](C(C)C)N(C)C(=O)N1CC3CC(C1)N3C)C(=O)N1CCC[C@H](N1)C(=O)OCC(C)(C)C2 [Example A284] | 100 to 1000 nM | 100 to 1000 nM | 100 to 1000 nM | 100 to 1000 nM | 100 to 1000 nM | 1000 to 10000 nM | 1000 to 10000 nM | 100 to 1000 nM | 100 to 1000 nM | 100 to 1000 nM | 1000 to 10000 nM | 100 to 1000 nM |  |  | 0.1 to 1 µM | 0.1 to 1 µM |
| CCn1c(-c2cccnc2[C@H](C)OC)c2c3cc(ccc31)-c1csc(n1)C[C@H](NC(=O)[C@H](C(C)C)N(C)C(=O)N1CCCOCC1)C(=O)N1CCC[C@H](N1)C(=O)OCC(C)(C)C2 (atropisomer, axis not shown) [Example A335] | 100 to 1000 nM | 100 to 1000 nM | 10 to 100 nM | 10 to 100 nM | 10 to 100 nM | 100 to 1000 nM | 100 to 1000 nM | 10 to 100 nM | 10 to 100 nM | 10 to 100 nM | 10 to 100 nM | 10 to 100 nM | < 0.01 µM | 0.01 to 0.1 µM |  |  |
| CCn1c(-c2cccnc2[C@H](C)OC)c2c3cc(ccc31)-c1csc(n1)C[C@H](NC(=O)[C@H](C(C)C)N(C)C(=O)N(C)C)C(=O)N1CCC[C@H](N1)C(=O)OCC(C)(C)C2 (racemic) [Example A136] | 100 to 1000 nM | 100 to 1000 nM | 10 to 100 nM | 100 to 1000 nM | 100 to 1000 nM | 100 to 1000 nM | 100 to 1000 nM | 10 to 100 nM | 10 to 100 nM | 10 to 100 nM | 10 to 100 nM | 10 to 100 nM | < 0.01 µM | 0.01 to 0.1 µM |  |  |

Source: patent publication US20230233569A1 (Revolution Medicines, Inc., priority 2020, published 2023)
